Experiment [1] concerns the target T1, Histone deacetylase 7 (Homo sapiens, UniProt Q8WUI4).
T1 sequence (Q8WUI4 whole entry): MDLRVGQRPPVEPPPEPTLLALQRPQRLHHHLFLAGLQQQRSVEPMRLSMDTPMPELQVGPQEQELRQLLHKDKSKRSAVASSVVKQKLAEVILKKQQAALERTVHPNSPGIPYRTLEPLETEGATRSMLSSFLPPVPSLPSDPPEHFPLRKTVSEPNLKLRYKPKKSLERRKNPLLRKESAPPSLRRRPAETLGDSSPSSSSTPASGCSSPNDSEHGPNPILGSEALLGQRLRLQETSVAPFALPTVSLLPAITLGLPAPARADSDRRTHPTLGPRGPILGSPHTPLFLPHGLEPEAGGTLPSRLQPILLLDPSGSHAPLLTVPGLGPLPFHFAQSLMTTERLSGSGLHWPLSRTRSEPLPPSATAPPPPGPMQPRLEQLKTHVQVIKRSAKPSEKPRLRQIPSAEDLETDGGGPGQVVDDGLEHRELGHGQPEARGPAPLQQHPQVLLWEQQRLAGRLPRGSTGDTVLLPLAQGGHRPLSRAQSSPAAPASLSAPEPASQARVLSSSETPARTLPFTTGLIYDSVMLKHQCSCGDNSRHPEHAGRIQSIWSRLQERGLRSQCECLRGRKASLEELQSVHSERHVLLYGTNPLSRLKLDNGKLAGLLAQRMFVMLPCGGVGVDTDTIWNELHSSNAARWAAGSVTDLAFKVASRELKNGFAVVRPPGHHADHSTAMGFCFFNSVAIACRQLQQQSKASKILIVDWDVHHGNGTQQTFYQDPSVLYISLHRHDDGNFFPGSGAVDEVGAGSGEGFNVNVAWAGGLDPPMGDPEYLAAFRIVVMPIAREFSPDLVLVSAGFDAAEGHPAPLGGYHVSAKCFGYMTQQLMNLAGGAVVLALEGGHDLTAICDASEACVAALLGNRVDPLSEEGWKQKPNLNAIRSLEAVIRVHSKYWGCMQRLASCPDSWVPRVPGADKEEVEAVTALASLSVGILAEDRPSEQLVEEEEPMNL
Description: Inhibition of human HDAC-7 using RHKK(Ac) as substrate.

The target of experiment [2] is Histone deacetylase 2 (Homo sapiens, UniProt Q92769). Description: Inhibition of human HDAC-2 using RHKK(Ac) as substrate.
The target in experiment [3] is T2, Protein deacetylase HDAC6 (Homo sapiens, UniProt Q9UBN7).
T2 sequence (Q9UBN7 whole entry): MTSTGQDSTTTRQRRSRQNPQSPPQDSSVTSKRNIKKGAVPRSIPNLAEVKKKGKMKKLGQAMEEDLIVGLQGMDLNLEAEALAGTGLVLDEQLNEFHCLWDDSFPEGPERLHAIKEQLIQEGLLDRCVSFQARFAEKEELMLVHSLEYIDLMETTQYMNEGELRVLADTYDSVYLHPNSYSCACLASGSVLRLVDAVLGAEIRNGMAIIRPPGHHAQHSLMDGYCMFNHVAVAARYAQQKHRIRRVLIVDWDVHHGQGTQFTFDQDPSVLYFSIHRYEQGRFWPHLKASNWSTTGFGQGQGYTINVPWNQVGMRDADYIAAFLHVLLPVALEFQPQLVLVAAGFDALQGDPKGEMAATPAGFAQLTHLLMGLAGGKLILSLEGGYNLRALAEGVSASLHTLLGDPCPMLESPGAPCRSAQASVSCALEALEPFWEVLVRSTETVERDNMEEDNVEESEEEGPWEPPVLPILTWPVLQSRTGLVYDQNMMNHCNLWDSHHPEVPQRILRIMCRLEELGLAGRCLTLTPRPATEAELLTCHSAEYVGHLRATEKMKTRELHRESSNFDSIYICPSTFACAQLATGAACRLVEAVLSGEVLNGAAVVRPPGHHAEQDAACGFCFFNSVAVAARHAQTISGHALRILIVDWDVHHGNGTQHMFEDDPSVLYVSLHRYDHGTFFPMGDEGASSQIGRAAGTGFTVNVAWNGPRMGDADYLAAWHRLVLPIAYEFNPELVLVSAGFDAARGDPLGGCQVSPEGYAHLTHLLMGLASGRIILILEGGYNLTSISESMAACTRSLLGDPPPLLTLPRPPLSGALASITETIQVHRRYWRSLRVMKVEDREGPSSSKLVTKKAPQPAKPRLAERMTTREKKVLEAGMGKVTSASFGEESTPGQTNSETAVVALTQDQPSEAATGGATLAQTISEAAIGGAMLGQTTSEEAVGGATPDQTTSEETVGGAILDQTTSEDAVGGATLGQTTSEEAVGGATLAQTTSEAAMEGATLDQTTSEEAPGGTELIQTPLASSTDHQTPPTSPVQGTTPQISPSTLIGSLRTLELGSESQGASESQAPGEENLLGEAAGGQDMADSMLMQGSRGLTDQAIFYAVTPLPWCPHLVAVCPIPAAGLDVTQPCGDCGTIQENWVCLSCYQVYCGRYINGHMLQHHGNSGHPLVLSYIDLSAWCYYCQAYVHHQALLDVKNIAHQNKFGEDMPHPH
The experiment can be described thus: Inhibition of human HDAC-6 using RHKK(Ac) as substrate.

By IC50 is commonly meant the concentration that gives 50% inhibition. A high value points to lower potency.

SMILES strings stand for the structures.

Sequence of Histone deacetylase 2 (Q92769 whole entry): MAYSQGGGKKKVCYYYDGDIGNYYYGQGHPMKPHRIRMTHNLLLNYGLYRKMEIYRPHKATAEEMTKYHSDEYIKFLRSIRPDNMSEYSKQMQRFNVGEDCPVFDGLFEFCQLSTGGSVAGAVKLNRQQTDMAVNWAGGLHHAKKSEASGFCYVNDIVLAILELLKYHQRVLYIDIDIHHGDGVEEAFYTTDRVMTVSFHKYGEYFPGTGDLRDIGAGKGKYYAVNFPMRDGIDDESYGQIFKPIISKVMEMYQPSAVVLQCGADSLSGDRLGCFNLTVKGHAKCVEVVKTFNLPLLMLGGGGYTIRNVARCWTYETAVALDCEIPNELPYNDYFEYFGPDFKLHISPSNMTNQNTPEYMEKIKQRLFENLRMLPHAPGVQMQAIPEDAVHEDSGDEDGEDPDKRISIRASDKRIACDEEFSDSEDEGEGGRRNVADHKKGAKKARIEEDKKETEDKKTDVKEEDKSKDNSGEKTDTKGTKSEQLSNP

Consider `CC(C)c1cc(C(=O)N2CCc3onc(C(=O)NCCCCCCC(=O)NO)c3C2)c(O)cc1O`, for which the half-inhibitory concentration (IC50) amounted to 2.51 µM in experiment [1], 9.49 µM in experiment [2] and 0.0041 µM in experiment [3].

Source of the values: ChEMBL document CHEMBL3232879, “4,5,6,7-Tetrahydro-isoxazolo-[4,5-c]-pyridines as a new class of cytotoxic Hsp90 inhibitors” (Eur J Med Chem, 2014).
